SMILES strings stand for the structures.

Drawing on patent US20250136606A1, “MODULATORS OF TRPML, THEIR COMPOSITIONS AND METHODS OF USE” (Caraway Therapeutics, Inc., priority 2021, published 2025), this text covers EC50 for nine molecules.

Holding throughout (assay type): cell-based
Common to all, as to details: fluorescent calcium assay

One experiment deals with T1, TRPML2 (Homo sapiens, UniProt Q8IZK6).
T1 construct: expressed in transfected cells
T1 sequence (Q8IZK6 1-566): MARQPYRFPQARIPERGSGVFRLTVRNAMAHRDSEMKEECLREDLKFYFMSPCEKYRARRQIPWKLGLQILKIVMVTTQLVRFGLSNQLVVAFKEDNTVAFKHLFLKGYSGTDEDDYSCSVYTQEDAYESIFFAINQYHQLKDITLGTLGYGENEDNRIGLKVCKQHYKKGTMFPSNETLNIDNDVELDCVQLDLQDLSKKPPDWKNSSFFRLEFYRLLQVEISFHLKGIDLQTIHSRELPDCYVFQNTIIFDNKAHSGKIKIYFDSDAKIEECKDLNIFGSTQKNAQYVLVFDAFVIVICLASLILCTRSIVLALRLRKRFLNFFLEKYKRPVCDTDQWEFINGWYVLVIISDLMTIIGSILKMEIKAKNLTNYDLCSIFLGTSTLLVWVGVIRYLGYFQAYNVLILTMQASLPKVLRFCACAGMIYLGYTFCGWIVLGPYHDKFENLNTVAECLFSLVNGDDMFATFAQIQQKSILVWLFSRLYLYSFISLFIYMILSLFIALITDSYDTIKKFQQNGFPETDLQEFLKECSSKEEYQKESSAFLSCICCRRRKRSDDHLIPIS
Description: Fluorescent TRPML2 assay (performed as for TRPML1, substituting the TRPML2 subtype). A digest of the protocol:
(§1)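 Doxycycline-induced (0.5 ug/mL) HEK-293 Trex cells stably expressing surface-directed mutant channel were loaded with 1 micromolar Fluo4-AM, resuspended in Ringer's with 10 mM calcium and added to compound plates. Fluorescence (ex 480, em 540 nm) gave percent activity versus on-plate controls; EC50 by non-linear regression.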

The target of another experiment is T2, TRPML3 (Homo sapiens, UniProt Q8TDD5).
T2 construct: expressed in transfected cells
T2 sequence (Q8TDD5 1-553): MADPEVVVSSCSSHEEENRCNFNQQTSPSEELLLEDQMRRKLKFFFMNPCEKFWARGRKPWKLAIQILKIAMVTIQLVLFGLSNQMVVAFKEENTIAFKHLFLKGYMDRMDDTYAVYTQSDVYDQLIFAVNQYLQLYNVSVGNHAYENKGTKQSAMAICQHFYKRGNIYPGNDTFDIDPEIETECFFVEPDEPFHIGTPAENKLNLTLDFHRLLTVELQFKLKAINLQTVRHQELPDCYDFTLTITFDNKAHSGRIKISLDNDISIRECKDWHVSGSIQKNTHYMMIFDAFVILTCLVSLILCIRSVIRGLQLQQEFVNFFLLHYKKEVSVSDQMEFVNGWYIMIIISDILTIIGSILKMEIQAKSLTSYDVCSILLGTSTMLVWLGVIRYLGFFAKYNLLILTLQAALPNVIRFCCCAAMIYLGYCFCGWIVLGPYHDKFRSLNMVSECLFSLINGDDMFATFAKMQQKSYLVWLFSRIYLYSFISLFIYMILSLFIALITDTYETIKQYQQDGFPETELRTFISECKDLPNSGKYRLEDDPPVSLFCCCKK
Description: Fluorescent TRPML3 assay (performed as for TRPML1, substituting the TRPML3 subtype). Summed up: as §1

Another experiment has as its target TRPML1 (Homo sapiens, UniProt Q9GZU1). Description: Fluorescent TRPML1 assay (Fluo4-AM calcium fluorescence in doxycycline-induced HEK-293 Trex cells). Summed up:
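HEK-293 Trex cells stably expressing surface-directed mutant human TRPML1, induced with 0.5 µg/mL doxycycline overnight, were loaded with 1 µM Fluo4-AM and added to compound (6 nM–20 µM final, half-log steps, triplicate) in Ringer's with 10 mM calcium. Fluorescence ex 480/em 540; EC50 by non-linear regression versus plate controls.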

Sequence of TRPML1 (Q9GZU1 whole entry L15A/L16A/L577A/L578A, form open): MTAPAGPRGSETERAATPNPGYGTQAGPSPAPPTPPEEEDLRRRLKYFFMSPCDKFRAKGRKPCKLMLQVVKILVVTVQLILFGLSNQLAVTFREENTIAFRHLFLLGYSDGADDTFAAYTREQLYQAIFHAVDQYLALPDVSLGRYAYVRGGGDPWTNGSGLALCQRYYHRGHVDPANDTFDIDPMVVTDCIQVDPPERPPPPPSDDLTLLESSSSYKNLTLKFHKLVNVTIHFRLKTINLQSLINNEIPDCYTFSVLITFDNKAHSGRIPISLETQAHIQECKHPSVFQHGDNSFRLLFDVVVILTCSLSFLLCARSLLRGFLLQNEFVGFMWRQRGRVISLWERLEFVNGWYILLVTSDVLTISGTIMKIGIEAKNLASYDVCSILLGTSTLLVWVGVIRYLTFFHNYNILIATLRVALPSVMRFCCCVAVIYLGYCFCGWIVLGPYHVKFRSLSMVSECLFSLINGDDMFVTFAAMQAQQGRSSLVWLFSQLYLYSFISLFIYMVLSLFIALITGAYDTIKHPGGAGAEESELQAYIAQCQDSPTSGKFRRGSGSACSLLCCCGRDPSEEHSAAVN

For orientation: EC50 means the concentration giving half of the maximal effect. For `C[C@H]1CN(c2ncnc3c2c(C2CC2)cn3-c2cc(F)cc(F)c2)CCN1C(=O)OC(C)(C)C` [Compound 188, tert-Butyl (S)-4-(5-cyclopropyl-7-(3,5-difluorophenyl)-7H-pyrrolo[2,3-d]pyrimidin-4-yl)-2-methylpiperazine-1-carboxylate], the EC50 was 500 to 2000 nM at TRPML2, 100 to 500 nM at TRPML3 and 100 to 500 nM at TRPML1.
Take `CC1CN(C(=O)OC(C)(C)C)CCN1c1nccc2c1c(-c1cnccn1)cn2-c1cccc(Cl)c1` (stereo not drawn) [Compound 190, tert-Butyl 4-(1-(3-chlorophenyl)-3-(pyrazin-2-yl)-1H-pyrrolo[3,2-c]pyridin-4-yl)-3-methylpiperazine-1-carboxylate]: the half-maximal effective concentration (EC50) lay in the range of 500 to 2000 nM at TRPML2, 100 to 500 nM at TRPML3 and 500 to 2000 nM on TRPML1.
Regarding `C[C@H]1CN(C(=O)OC(C)(C)CF)CCN1c1ncnc2c1c(-c1ccccc1)cn2-c1cnn(C)c1` [Compound 191, 1-fluoro-2-methylpropan-2-yl (S)-3-methyl-4-(7-(1-methyl-1H-pyrazol-4-yl)-5-phenyl-7H-pyrrolo[2,3-d]pyrimidin-4-yl)piperazine-1-carboxylate], the EC50 on TRPML2 is 500 to 2000 nM; on TRPML3 it was 100 to 500 nM; at TRPML1, 100 to 500 nM.
In the case of `C[C@@H]1CN(c2ncnc3c2c(-c2ccccc2F)cn3-c2ccccn2)CCN1C(=O)OC(C)(C)C` [Compound 192, tert-butyl (R)-4-(5-(2-fluorophenyl)-7-(pyridin-2-yl)-7H-pyrrolo[2,3-d]pyrimidin-4-yl)-2-methylpiperazine-1-carboxylate], the figures for the EC50 at TRPML2, on TRPML3 and at TRPML1 were 100 to 500 nM, under 100 nM and under 100 nM, respectively.
As to `C[C@@H]1CN(c2ncnc3c2c(N2CCCC2)cn3-c2cccc(Cl)c2)CCN1C(=O)OC(C)(C)C` [Compound 193, tert-butyl (R)-4-(7-(3-chlorophenyl)-5-(pyrrolidin-1-yl)-7H-pyrrolo[2,3-d]pyrimidin-4-yl)-2-methylpiperazine-1-carboxylate], the EC50 on TRPML2 was 100 to 500 nM; on TRPML3, under 100 nM; at TRPML1, under 100 nM.
On to `C[C@H]1CN(c2ncnc3c2c(N2CCCC2)cn3-c2cccc(Cl)c2)CCN1C(=O)OC(C)(C)C` [Compound 194, tert-Butyl (S)-4-(7-(3-chlorophenyl)-5-(pyrrolidin-1-yl)-7H-pyrrolo[2,3-d]pyrimidin-4-yl)-2-methylpiperazine-1-carboxylate], for which the EC50 on TRPML2, at TRPML3 and at TRPML1 was 100 to 500 nM throughout.
With `C[C@@H]1CN(C(=O)OC(C)(C)C)CCN1c1ncnc2c1c(C1CC1)cn2-c1cccc(OC(F)(F)F)c1` [Compound 195, tert-butyl (R)-4-(5-cyclopropyl-7-(3-(trifluoromethoxy)phenyl)-7H-pyrrolo[2,3-d]pyrimidin-4-yl)-3-methylpiperazine-1-carboxylate], the EC50 at TRPML2 was 100 to 500 nM; at TRPML3, under 100 nM; at TRPML1, 100 to 500 nM.
As to `C[C@H]1CN(C(=O)OC(C)(C)C)CCN1c1ncnc2c1c(C1CC1)cn2-c1cccc(OC(F)(F)F)c1` [Compound 196, tert-butyl (S)-4-(5-cyclopropyl-7-(3-(trifluoromethoxy)phenyl)-7H-pyrrolo[2,3-d]pyrimidin-4-yl)-3-methylpiperazine-1-carboxylate], the EC50 is 100 to 500 nM on TRPML2, under 100 nM on TRPML3 and under 100 nM at TRPML1.
Regarding `C[C@@H]1CN(C(=O)OC(C)(C)C)CCN1c1ncnc2c1c(C1CC1)cn2-c1cccc(OC(F)F)c1` [Compound 197, tert-butyl (R)-4-(5-cyclopropyl-7-(3-(difluoromethoxy)phenyl)-7H-pyrrolo[2,3-d]pyrimidin-4-yl)-3-methylpiperazine-1-carboxylate], the half-maximal effective concentration (EC50) at TRPML2, at TRPML3 and at TRPML1 was 100 to 500 nM each time.
